# Patent US20110263580A1, “METHOD FOR TREATING ALZHEIMER'S DISEASE AND RELATED CONDITIONS” (priority 2008, published 2011)
# Read-outs that look alike come from different tables or passages of the source.
# Experiments:
# [1] = tested on: Aβ; experiment: CSF levels of Aβ post-dose in rhesus monkey; type: in vivo
# [2] = rhesus monkey, in vivo; for Tolerated: po
# Description: Compound IA (synthesis example 2 herein) was administered orally to groups of rhesus monkeys by continuous and intermittent regimens over periods of days or weeks. Physical signs were recorded and the absence of loose stool, and other overt physical signs, was taken as tolerance.
# [3] = Plasma levels of the drug after a single dose in mice; type: in vivo; conditions: single dose of 300 mg/Kg
# Description: (§1) Compound IIIA (prepared as described in Sparey et al, Bioorg. Med. Chem. Lett. (2005) 15, 4212-4216) was administered orally to groups of mice (n=10) via gavage in 0.5% methylcellulose by a variety of continuous and intermittent regimens over periods of several weeks, and body weights recorded twice-weekly as a measure of tolerance or otherwise of the drug treatment. Less than 20% loss of body weight after 21 days, with no other overt symptoms, was taken as tolerance, and the results are summarised in the following table:
# (§2) Plasma levels of Aβ were monitored 4 hours, 1 day, 3 days, 4 days and 7 days after a single dose of 300 mg/Kg, and found to be (respectively), 0%, 0%, 0%, 67% and 85% of the baseline (control) level, indicating prolonged therapeutic efficacy from the single dose. Plasma levels of the drug had declined to zero within 4 days of the single dose.
# [4] = tested on: Aβ; experiment: Plasma levels of Aβ after a single dose in mice; type: in vivo; conditions: single dose of 300 mg/Kg
# Description: as §1, §2
# [5] = mouse, in vivo, po
# Description: as §1, with “table: […]” for “table:”
# [6] = Side effects in rhesus monkeys, once-weekly dosing; type: in vivo; conditions: oral, once-weekly 30 mpk
# Description: (§3) Compound VIB (Example 23 herein) was administered orally to rhesus monkeys once-weekly at a dose of 30 mpk and levels of Aβ40 and Aβ42 in the cerebrospinal fluid (CSF) were monitored.
# [7] = tested on: Aβ42; experiment: CSF Aβ42 in rhesus monkeys, once-weekly dosing; type: in vivo; conditions: oral, once-weekly 30 mpk, over a 3 week period, relative to vehicle-treated controls
# Description: as §3
# [8] = tested on: Aβ40; experiment: CSF Aβ40 in rhesus monkeys, once-weekly dosing; type: in vivo; conditions: oral, once-weekly 30 mpk, over a 3 week period, relative to vehicle-treated controls
# Description: as §3
structure (smiles),measurement,setting,value
"O=S(=O)(N[C@H]1C[C@@](c2cc(F)ccc2F)(S(=O)(=O)c2ccc(Cl)cc2)C1)C(F)(F)F [Compound IA, N-[cis-3-[(4-chlorophenyl)sulfonyl]-3-(2,5-difluorophenyl)cyclobutyl]-1,1,1-trifluoromethanesulfonamide]",Effect on CSF levels of Aβ,[1]; doses below 10 mg/Kg,do not effect Aβ levels appreciably
same,Effect on CSF levels of Aβ,[1]; weekly doses,lower CSF Aβ significantly
same,Tolerance,[2],tolerated
same,Tolerated,[2]; 3 mg/kg,No
same,Tolerated,[2]; 50 mg/kg,Yes
same,Tolerated,[2]; 200 mg/kg,Yes
O=S1(=O)NC2(CN1CC(F)(F)F)C1CCC2Cc2cc(C=CCN3CCC(C(F)(F)F)CC3)ccc2C1 (stereo not shown) [Compound IIIA],Time until plasma levels of the drug had declined to zero,[3],≤ 4 days
same,"Plasma levels of Aβ, % of the baseline (control) level",[4]; 4 hours after dose,0%
same,"Plasma levels of Aβ, % of the baseline (control) level",[4]; 1 day after dose,0%
same,"Plasma levels of Aβ, % of the baseline (control) level",[4]; 3 days after dose,0%
same,"Plasma levels of Aβ, % of the baseline (control) level",[4]; 4 days after dose,67%
same,"Plasma levels of Aβ, % of the baseline (control) level",[4]; 7 days after dose,85%
same,Tolerated,[5]; 50 mg/kg,Yes
same,Tolerated,[5]; 150 mg/kg,No
same,Tolerated,[5]; 300 mg/kg,Yes
"O=S(=O)(N[C@H]1CC[C@@](c2cc(F)ccc2C(F)(F)F)(S(=O)(=O)c2ccc(C(F)(F)F)cc2)CC1)C(F)(F)F [Compound VIB, 1,1,1-trifluoro-N-(4-[5-fluoro-2-(trifluoromethyl)phenyl]-4-{[4-(trifluoromethyl)phenyl]sulfonyl}cyclohexyl)methanesulfonamide]",GI toxicity,[6]; 3 week period,no evidence of GI toxicity
same,Other side-effects (study terminated after 3 weeks),[6]; unconnected with Notch signalling,respiratory side-effects
same,Average reduction in CSF Aβ42 levels,[7],approximately 40%
same,Average reduction in CSF Aβ40 levels,[8],approximately 40%
